Data reported in US10736873B2, “Medical uses of N-(2-aminoethyl)-N-(4-benzyloxy)-3-methoxybenzyl)thiophene-2-formamide hydrochloride” (The Second Xiangya Hospital, Central South University, priority 2017, dated 2020).

Key:
[1] = test system: Scid-Huh7-subcutaneous tumor; experiment: Scid-Huh7 subcutaneous tumor model in NOD/SCID nude mice; format: in vivo; conditions: for Relative volume of Scid-Huh7-subcutaneous tumor: 2 mg/kg i.p. 1 time/day
Experimental: (§1) Using the hepatoma cell line Huh7, 5×10^6 cells were injected into the right flank of each NOD/SCID nude mouse (10 in total) respectively. When the tumor grows to a volume of about 80 mm^3, the mice were randomly divided into control group and therapeutic intervention group, with 5 mice in each group. Therapeutic Intervention Group: M8-B hydrochloride was dissolved in DMSO to form an injectable medication, intraperitoneally injected, at a dose of 2 mg/kg (wherein 2 mg was the mass of M8-B hydrochloride), 1 time/day. Control Group: The blank solvent DMSO was intraperitoneally injected, at a dose of 2 mg/kg, 1 time/day. Tumor size was measured by volume=½×length×width^2, and the mice were sacrificed at week 6 to compare survival rate and tumor volume. The experimental results of this example are as follows: In Table 2, DMSO represents the relative volume of Scid-Huh7-subcutaneous tumor in the control group of blank solvent, M8-B represents the relative volume of Scid-Huh7-subcutaneous tumor in the therapeutic intervention group, and P value represents the difference between the relative volumes of Scid-Huh7-subcutaneous tumors in the control group and therapeutic intervention group. The tumor size on the first day of administration is 100%.

[2] = test system: Scid-HepG2-subcutaneous tumor; experiment: Scid-HepG2 subcutaneous tumor model in NOD/SCID nude mice; format: in vivo; conditions: for Relative volume of Scid-HepG2-subcutaneous tumor: 2 mg/kg i.p. 1 time/day
Experimental: as §1, with “line HepG2,” for “line Huh7,”, “week 10 to compare survival rate and tumor volume. The experimental results of this example are as follows:[…]” for “week 6”, “Table 1,” for “Table 2,”, “of Scid-HepG2-subcutaneous” for “of Scid-Huh7-subcutaneous”

[3] = week 0, tumor size on first day of administration = 100%
[4] = week 1, first day of administration = 100%
[5] = week 2, first day of administration = 100%
[6] = week 3, first day of administration = 100%
[7] = week 4, first day of administration = 100%
[8] = week 5, first day of administration = 100%
[9] = week 6, first day of administration = 100%

**Q.** What does the source list for COc1cc(CN(CCN)C(=O)c2cccs2)ccc1OCc1ccccc1.Cl [M8B]?
**A.** changes of tumor volume in mice (HuH7 tumors) ([1]; versus DMSO control, results of table 2): significantly slower; Relative volume of Scid-Huh7-subcutaneous tumor [1, 3]: 100.00%; Relative volume of Scid-Huh7-subcutaneous tumor [1, 4]: 143.85%; Relative volume of Scid-Huh7-subcutaneous tumor [1, 5]: 205.0%; Relative volume of Scid-Huh7-subcutaneous tumor [1, 6]: 381.41%; Relative volume of Scid-Huh7-subcutaneous tumor [1, 7]: 484.0%; Relative volume of Scid-Huh7-subcutaneous tumor [1, 8]: 789.89%; Relative volume of Scid-Huh7-subcutaneous tumor [1, 9]: 928.01%; changes of tumor volume in mice (HepG2 tumors) ([2]; versus DMSO control, results of table 1): significantly slower; Relative volume of Scid-HepG2-subcutaneous tumor [2, 3]: 100.00%; Relative volume of Scid-HepG2-subcutaneous tumor [2, 4]: 151.94%; Relative volume of Scid-HepG2-subcutaneous tumor [2, 5]: 212.44%; Relative volume of Scid-HepG2-subcutaneous tumor [2, 6]: 273.9%; Relative volume of Scid-HepG2-subcutaneous tumor [2, 7]: 349.0%; Relative volume of Scid-HepG2-subcutaneous tumor [2, 8]: 416.66%; Relative volume of Scid-HepG2-subcutaneous tumor [2, 9]: 479.2%; Relative volume of Scid-HepG2-subcutaneous tumor ([2]; week 7, first day of administration = 100%): 590.68%; Relative volume of Scid-HepG2-subcutaneous tumor ([2]; week 8, first day of administration = 100%): 1108.50%; Relative volume of Scid-HepG2-subcutaneous tumor ([2]; week 9, first day of administration = 100%): 700.92%; Relative volume of Scid-HepG2-subcutaneous tumor ([2]; week 10, first day of administration = 100%): 734.87%
